Measurements published in patent US6358946B1, “C-6 ring-substituted pyrido[1,2-a]benzimidazole derivatives useful in treating central nervous system disorders” (Ortho-McNeil Pharmaceutical, Inc., priority 1999, dated 2002).
Where a name gives a salt, the structure may show the parent alone. Read-outs that look alike come from different tables or passages of the source.

Tests used:
[1] = system: behavior suppressed by punishment (conflict); experiment: Suppression of anxiety in the adult male rat (Vogel conflict test); type: in vivo, Male rats; conditions: PO (oral) administration, MED >10 = active dose not determined, read-out: Conf. PO (minimum effective dose, MED)
Procedure: Assay to Measure the Suppression of Anxiety in the Adult Male Rat
The anxiolytic activity of selected compounds of the invention was assessed by determining their ability to release (disinhibit) behavior that had been suppressed by punishment (Vogel, J. R. et al. Psychopharmacology 1971, 21, 1). Male rats were deprived of water for 48 hrs and were deprived of food for 24 hrs prior to testing. After the first 24 hours of water deprivation, they were placed in the conflict chamber for a training period; wherein, they were allowed 200 unpunished licks from a bottle containing tap water. The experiment was run the next day. At the expected time of peak activity, the animals were placed in the chamber and allowed access to tap water. […] Their first lick initiates a 3-min test session. Subsequently, every 20th lick was punished by a 0.2-s shock delivered via the stainless-steel drinking-tube. Vehicle-treated control animals generally were willing to accept a median number of 3 to 8 shocks per test session. […] The Wilcoxon rank-sum test (Mann-Whitney U-test) was used to test for an increase (p<0.05, 1-tailed) in the median number of shocks in drug-treated groups, compared to a concurrently run vehicle-treated group. The biological assay is considered to be valid if the effects of a known anxiolytic (positive control) are detected, within the same experiment. A compound was considered active if there is a significant difference in the median number of shocks tolerated between the drug-treated group and the control group. The minimum effective doses (MED) for the active compounds of the invention are listed in Table 1 under the heading Conf., with PO indicating an oral route of administration. The MED was defined as the minimum dose of the drug-treatment as analyzed using the Wilcoxon rank-sum test (SAS; Statistical Analysis System, version 5.16). If the MED value is greater than 10, an active dose of the compound being tested had not been determined.

[2] = molecular target: benzodiazepine site of the GABA-A receptor; experiment: Benzodiazepine receptor binding assay (inhibition of 3H-flunitrazepam binding to membranes); conditions: inhibition of 3H-flunitrazepam (ca. 3 nM) binding; over 10,000 = not active
[3] = system: metrazol-induced clonic convulsions; experiment: Suppression of metrazol-induced convulsions in adult male mice; type: in vivo, Male CD1 mice; conditions: Mus musculus, block of clonic convulsions after s.c. CD90 dose of metrazol
Procedure: Assay to Determine the Suppression of Metrazol-Induced Convulsions in Adult Male Mice
Compounds of the invention were tested for their ability to reduce metrazol-induced convulsions in mice (Swinyard, E. A. J. Am. Pharm Assoc. 1949, 38, 201). Male CD1 mice, were fasted at least 16 hours, were divided into equal groups and test compounds or vehicle were administered parenterally. Water was not withheld except during the period of observations. At the time of suspected peak activity, anti-pentylenetetrazol (anti-metrazol) activity was evaluated by the subcutaneous administration of the CD90 dose of metrazol (the dose of metrazol was determined from the dose-response curve producing clonic convulsions in 90% of animals that received the corresponding vehicle for this experiment). Metrazol was dissolved in 0.9% sodium chloride solution, and its dose volume was 10 mL/kg. Animals were housed individually for observation of clonic convulsions, tonic convulsions and death for a period of 30 min. Test compounds that blocked the clonic seizure component of the convulsion in at least 50% of the animals were considered active. The biological assay was considered to be valid if the effects of a known anticonvulsant (positive control) were detected, within the same experiment. Activity was reported as percent reduction of clonic convulsions from the vehicle group. The ED50 values of active compounds were calculated by the method of probits (Finney, D. J. Probit Analysis, London: 1971, Cambridge University Press) and are listed in Table 1. […] Compounds active in this screen are considered active anticonvulsion/antiepileptic agents, as well as having potential anxiolytic activity. The data for the test compounds is listed in Table 1 as Met. for either PO (oral) or IP (parenteral) routes of administration.

[4] = IP (parenteral) administration, read-out: Met. IP (ED50)
[5] = PO (oral) administration, read-out: Met. PO (ED50)

| Structure (SMILES) | minimal effective dose [1] | IC50 [2] | melting point | ED50 [3, 4] | ED50 [3, 5] |
| --- | --- | --- | --- | --- | --- |
| COc1ccccc1N1CCN(c2cccc3c2NC2=C(C(=O)Nc4c(F)cccc4F)C(=O)CCN23)CC1 [Compound 5] | > 10 mg/kg | < 100 nM |  |  |  |
| O=C1CCN2C(=C1C(=O)Nc1c(F)cccc1F)Nc1c(N3CCCCC3)cccc12 (as salt: hydrochloride) [Compound 10, Pyrido[1,2-a]benzimidazole-4-carboxamide, N-(2,6-difluorophenyl)-1,2,3,5-tetrahydro-3-oxo-6-(1-piperidinyl)-] |  |  | 240 to 241 °C |  |  |
| O=C1CCN2C(=C1C(=O)Nc1ccccc1F)Nc1c2cccc1-n1ccnc1 [Compound 2, Pyrido[1,2-a]benzimidazole-4-carboxamide, N-2-fluorophenyl-1,2,3,5-tetrahydro-3-oxo-6-(1-imidazolyl)-] | > 10 mg/kg | 3.48 nM |  | 1 mg/kg | ~5 mg/kg |
| COCC(=O)N1CCN(c2cccc3c2N(C)C2=C(C(=O)Nc4ccccc4F)C(=O)CCN23)CC1 [Compound 22, Pyrido[1,2-a]benzimidazole-4-carboxamide, N-2-fluorophenyl-1,2,3-trihydro-3-oxo-5-methyl-6-[4-(2-methoxyacetyl)-1-piperazinyl]-] | > 3 mg/kg | 0.24 nM |  |  |  |
| CN1C2=C(C(=O)Nc3ccccc3F)C(=O)CCN2c2cccc(-n3ccnc3)c21 [Compound 13, Pyrido[1,2-a]benzimidazole-4-carboxamide, N-2-fluorophenyl-1,2,3-trihydro-3-oxo5-methyl-6-(1-imidazolyl)-] | > 3 mg/kg | 0.13 nM |  |  |  |
| O=C1CCN2C(=C1C(=O)Nc1ccccc1F)Nc1c(N3CCOCC3)cccc12 [Compound 3] | > 10 mg/kg | 1.05 nM |  | > 1 mg/kg | 3 mg/kg |
| O=C1CCN2C(=C1C(=O)Nc1ccccc1F)Nc1c(N3CCC4(CC3)OCCO4)cccc12 [Compound 20, Pyrido[1,2-a]benzimidazole-4-carboxamide, N-2-fluorophenyl-1,2,3,5-tetrahydro-3-oxo-6-[8-(1,4-dioxa-8-azaspiro[4,5]decanyl)]-] | 3 mg/kg | 1.11 nM |  |  | 0.83 mg/kg |
| O=C1CCN2C(=C1C(=O)Nc1ccccc1F)Nc1c(N3CCCCC3)cccc12 [Compound 9] | ≤ 3 mg/kg | 69.5 nM |  |  |  |
| O=C1CCN2C(=C1C(=O)Nc1c(F)cccc1F)Nc1c(N3CCCCC3)cccc12 [Compound 10, Pyrido[1,2-a]benzimidazole-4-carboxamide, N-(2,6-difluorophenyl)-1,2,3,5-tetrahydro-3-oxo-6-(1-piperidinyl)-] | 3 mg/kg | 0.41 nM |  |  | 3.64 mg/kg |
| O=C1CCN2C(=C1C(=O)Nc1ccccc1F)Nc1c(N3CCSCC3)cccc12 [Compound 14] | ~3 mg/kg | 8.43 nM |  |  |  |
| O=C1CCN2C(=C1C(=O)Nc1c(F)cccc1F)Nc1c2cccc1-n1ccnc1 [Compound 1] |  | 0.66 nM |  | ≤ 1 mg/kg | ~10 mg/kg |
| CN1C2=C(C(=O)Nc3ccccc3F)C(=O)CCN2c2cccc(N3CCCCC3)c21 [Compound 18] | 0.03 to 0.1 mg/kg | 0.22 nM |  |  | 0.65 mg/kg |
| COc1cccc(NC(=O)C2=C3Nc4c(N5CCOCC5)cccc4N3CCC2=O)c1 [Compound 8] | > 10 mg/kg | 2.4 nM |  |  |  |
| O=C1CCN2C(=C1C(=O)Nc1nccs1)Nc1c2cccc1-n1ccnc1 [Compound 17] | > 3 mg/kg | 160 nM |  |  |  |
| CN1C2=C(C(=O)Nc3ccccc3F)C(=O)CCN2c2cccc(N3CCC4(CC3)OCCO4)c21 [Compound 21, Pyrido[1,2-a]benzimidazole-4-carboxamide, N-2-fluorophenyl-1,2,3-trihydro-3-oxo-5-methyl-6-[8-(1,4-dioxa-8-azaspiro[4,6]decanyl)]-] | ≤ 0.3 mg/kg | 0.13 nM |  |  |  |
| CN1C2=C(C(=O)Nc3ccccc3F)C(=O)CCN2c2cccc(N3CCSCC3)c21 [Compound 15] | 1 mg/kg | 0.23 nM |  |  |  |
| O=C1CCN2C(=C1C(=O)Nc1c(F)cccc1F)Nc1c(N3CCOCC3)cccc12 [Compound 4] | ~0.1 mg/kg | 0.23 nM |  | < 1 mg/kg | < 3 mg/kg |
| CN1C2=C(C(=O)Nc3nccs3)C(=O)CCN2c2cccc(-n3ccnc3)c21 [Compound 16] | > 3 mg/kg | 2.12 nM |  |  |  |
| COc1ccc(NC(=O)C2=C3Nc4c(N5CCCCC5)cccc4N3CCC2=O)cc1 [Compound 11] | > 3 mg/kg | 34.8 nM |  |  |  |
| COc1ccccc1N1CCN(c2cccc3c2NC2=C(C(=O)Nc4ccccc4F)C(=O)CCN23)CC1 [Compound 6] | > 10 mg/kg | ~1000 nM |  |  |  |
| CN1C2=C(C(=O)Nc3ccccc3F)C(=O)CCN2c2cccc(N3CCOCC3)c21 [Compound 12] |  | 0.15 nM |  |  |  |
| COc1ccc(NC(=O)C2=C3Nc4c(N5CCOCC5)cccc4N3CCC2=O)cc1 [Compound 7] | 0.1 mg/kg | 2.04 nM |  |  |  |
| O=C1CCN(c2cccc3c2NC2=C(C(=O)Nc4ccccc4F)C(=O)CCN23)CC1 [Compound 23] | ≤ 3 mg/kg |  |  |  |  |
